Drawing on patent EP3212201B1, “NUCLEOSIDE KINASE INHIBITORS” (BCI Pharma, priority 2014, dated 2016), this text covers inhibition for 16 molecules.

Common to all, as to assay: FRET-based coupled-enzyme protein kinase inhibition assay
Holding throughout (format): biochemical
Holding throughout (details): compound at 10 µM, 1% DMSO

In test [1] the target is T1, CHEK1 (CHK1) (Homo sapiens, UniProt O14757).
T1 sequence (O14757 1-476): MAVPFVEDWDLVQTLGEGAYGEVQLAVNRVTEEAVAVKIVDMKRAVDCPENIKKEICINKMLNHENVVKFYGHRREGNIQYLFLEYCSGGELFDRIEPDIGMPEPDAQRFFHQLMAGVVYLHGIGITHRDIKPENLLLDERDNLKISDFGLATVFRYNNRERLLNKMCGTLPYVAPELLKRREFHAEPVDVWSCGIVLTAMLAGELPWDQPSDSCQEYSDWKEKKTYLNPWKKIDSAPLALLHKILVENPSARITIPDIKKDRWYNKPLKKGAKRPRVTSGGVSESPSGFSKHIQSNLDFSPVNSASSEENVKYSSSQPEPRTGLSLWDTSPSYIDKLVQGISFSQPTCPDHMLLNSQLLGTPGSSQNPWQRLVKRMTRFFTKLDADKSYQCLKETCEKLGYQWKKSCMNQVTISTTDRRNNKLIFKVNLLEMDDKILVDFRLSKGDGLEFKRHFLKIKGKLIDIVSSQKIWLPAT
An outline of the steps:
(§1)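 Inhibition was quantified ratiometrically, as coumarin over fluorescein emission following 400 nm excitation, on a doubly labeled peptide whose cleavage by development reagent requires it to remain unphosphorylated. Kinase reactions ran 60 min at room temperature with ATP at apparent Km.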

The target of test [2] is T2, NEK1 (Homo sapiens, UniProt Q96PY6).
T2 sequence (Q96PY6 1-1258): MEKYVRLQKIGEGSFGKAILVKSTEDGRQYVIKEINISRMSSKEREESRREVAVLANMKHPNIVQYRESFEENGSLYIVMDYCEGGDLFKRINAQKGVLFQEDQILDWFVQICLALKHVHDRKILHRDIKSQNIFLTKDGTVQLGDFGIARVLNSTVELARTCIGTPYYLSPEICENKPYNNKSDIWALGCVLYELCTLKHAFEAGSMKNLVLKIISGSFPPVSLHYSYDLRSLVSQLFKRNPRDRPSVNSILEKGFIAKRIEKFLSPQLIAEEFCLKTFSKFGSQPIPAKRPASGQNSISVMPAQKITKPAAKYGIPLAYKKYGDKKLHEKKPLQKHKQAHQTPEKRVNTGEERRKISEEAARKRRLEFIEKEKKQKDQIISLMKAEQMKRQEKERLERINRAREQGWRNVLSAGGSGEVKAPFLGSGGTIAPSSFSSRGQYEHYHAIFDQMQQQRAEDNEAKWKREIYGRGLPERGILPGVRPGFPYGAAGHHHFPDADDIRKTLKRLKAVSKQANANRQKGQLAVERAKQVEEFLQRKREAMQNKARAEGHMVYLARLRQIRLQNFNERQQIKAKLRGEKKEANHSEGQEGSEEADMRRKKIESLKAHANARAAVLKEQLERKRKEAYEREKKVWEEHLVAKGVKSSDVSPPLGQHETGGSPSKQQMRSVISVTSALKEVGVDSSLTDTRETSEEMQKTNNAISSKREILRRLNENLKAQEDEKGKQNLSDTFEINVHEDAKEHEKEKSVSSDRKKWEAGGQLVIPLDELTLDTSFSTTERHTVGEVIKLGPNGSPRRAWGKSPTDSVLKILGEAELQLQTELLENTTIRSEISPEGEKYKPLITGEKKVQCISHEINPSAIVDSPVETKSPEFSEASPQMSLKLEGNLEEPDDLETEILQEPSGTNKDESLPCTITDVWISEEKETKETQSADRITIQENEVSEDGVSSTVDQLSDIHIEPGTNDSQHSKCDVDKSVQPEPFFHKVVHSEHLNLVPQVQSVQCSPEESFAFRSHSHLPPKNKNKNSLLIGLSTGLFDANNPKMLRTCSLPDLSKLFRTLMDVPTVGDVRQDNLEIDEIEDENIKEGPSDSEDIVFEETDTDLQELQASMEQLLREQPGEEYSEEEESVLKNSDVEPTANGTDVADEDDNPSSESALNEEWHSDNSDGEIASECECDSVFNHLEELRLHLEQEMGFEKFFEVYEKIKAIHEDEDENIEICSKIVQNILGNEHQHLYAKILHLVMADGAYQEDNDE
Summed up: as §1

In test [3] the target is PLK1 (Homo sapiens, UniProt P53350). An outline of the steps: as §1
Test [4] addresses LCK (Homo sapiens, UniProt P06239). An outline of the steps:
as §1

Sequence of LCK (P06239 whole entry, species assumed): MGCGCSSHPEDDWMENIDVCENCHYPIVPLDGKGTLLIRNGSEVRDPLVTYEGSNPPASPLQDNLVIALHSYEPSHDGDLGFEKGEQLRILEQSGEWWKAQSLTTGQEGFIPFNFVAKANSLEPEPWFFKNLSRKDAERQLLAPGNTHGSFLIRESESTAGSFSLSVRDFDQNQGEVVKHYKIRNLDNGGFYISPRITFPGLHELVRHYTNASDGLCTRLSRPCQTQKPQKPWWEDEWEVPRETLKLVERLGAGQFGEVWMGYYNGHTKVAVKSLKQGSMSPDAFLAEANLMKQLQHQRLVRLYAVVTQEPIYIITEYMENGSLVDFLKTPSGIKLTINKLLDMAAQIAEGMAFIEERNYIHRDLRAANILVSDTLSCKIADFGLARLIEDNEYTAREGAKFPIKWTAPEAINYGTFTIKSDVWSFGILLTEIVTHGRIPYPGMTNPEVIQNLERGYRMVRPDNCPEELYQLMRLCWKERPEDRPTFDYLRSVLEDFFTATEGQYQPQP
Sequence of PLK1 (P53350 whole entry, species assumed): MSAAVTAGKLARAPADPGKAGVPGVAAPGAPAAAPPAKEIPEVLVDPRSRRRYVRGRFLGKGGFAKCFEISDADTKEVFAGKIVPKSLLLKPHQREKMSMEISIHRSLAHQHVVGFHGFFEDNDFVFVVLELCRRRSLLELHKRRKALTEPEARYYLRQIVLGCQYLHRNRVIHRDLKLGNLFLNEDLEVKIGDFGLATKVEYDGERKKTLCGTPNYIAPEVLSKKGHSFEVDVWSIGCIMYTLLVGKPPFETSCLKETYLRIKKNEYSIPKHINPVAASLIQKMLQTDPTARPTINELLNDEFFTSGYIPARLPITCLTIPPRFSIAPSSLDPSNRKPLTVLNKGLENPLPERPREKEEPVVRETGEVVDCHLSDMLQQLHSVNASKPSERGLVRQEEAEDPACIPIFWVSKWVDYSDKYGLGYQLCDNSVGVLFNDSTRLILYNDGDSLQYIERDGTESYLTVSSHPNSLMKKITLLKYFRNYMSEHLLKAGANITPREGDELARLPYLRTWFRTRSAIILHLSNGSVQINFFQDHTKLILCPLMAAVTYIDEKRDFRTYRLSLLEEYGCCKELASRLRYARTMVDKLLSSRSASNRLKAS

As usually defined, the inhibition is the change of the read-out against control, counted positive when it falls. Regarding `Nc1ncnc2c1ncn2[C@@H]1O[C@H](COC(=O)NCCCc2nc3ccccc3[nH]2)[C@@H](O)[C@H]1O` [Compound C1], the inhibition at 10 µM in test [1] was -20%; in test [2] it was -4%; in test [3] it was -8%; in test [4] it was 72%.

For `C[C@@H](NC(=O)OC[C@H]1O[C@@H](n2cnc3c(N)ncnc32)[C@H](O)[C@@H]1O)c1ccc(Cl)cc1` [Compound C4], the inhibition at 10 µM is -11% in test [1], 4% in test [2], -3% in test [3] and 60% in test [4].

As for `Nc1ncnc2c1ncn2[C@@H]1O[C@H](COC(=O)NC[C@H](O)CO)[C@@H](O)[C@H]1O` [Compound C8], the inhibition at 10 µM in test [1] was -8%; in test [2], -5%; in test [3] it was -1%; in test [4], 26%.

Consider `Nc1ncnc2c1ncn2[C@@H]1O[C@H](COC(=O)N2CCC[C@H]2CO)[C@@H](O)[C@H]1O` [Compound C9], for which the inhibition at 10 µM in test [1] is 14%; in test [2], -3%; in test [3] it was -1%; in test [4], 19%.

As for `Nc1ncnc2c1ncn2[C@@H]1O[C@H](COC(=O)N[C@@H]2CCN(Cc3ccccc3)C2)[C@@H](O)[C@H]1O` [Compound C10], the inhibition at 10 µM in test [1] was -3%; in test [2] it was 11%; in test [3] it was -13%; in test [4], 62%.

For `Nc1ncnc2c1ncn2[C@@H]1O[C@H](COC(=O)N2CCN(Cc3ccccc3)CC2CO)[C@@H](O)[C@H]1O` (stereo partly shown) [Compound C13], the inhibition at 10 µM in test [1] is -8%; in test [2], 4%; in test [3] it was -12%; in test [4], 44%.

With `CC(C)N1CCC(NC(=O)OC[C@H]2O[C@@H](n3cnc4c(N)ncnc43)[C@H](O)[C@@H]2O)CC1` [Compound C19], the inhibition at 10 µM in test [1] is -16%; in test [2], -2%; in test [3], -6%; in test [4], 32%.

As to `Nc1ncnc2c1ncn2[C@@H]1O[C@H](COC(=O)NCCN2CCCC2=O)[C@@H](O)[C@H]1O` [Compound C22], the inhibition at 10 µM is -14% in test [1], -2% in test [2], -5% in test [3] and 15% in test [4].

Turning to `Nc1ncnc2c1ncn2[C@@H]1O[C@H](COC(=O)N2CCN(CCc3ccccc3)CC2)[C@@H](O)[C@H]1O` [Compound C26], the inhibition at 10 µM in test [1] was 20%; in test [2], -7%; in test [3], -8%; in test [4] it was 57%.

Regarding `CN1CCN(CCNC(=O)OC[C@H]2O[C@@H](n3cnc4c(N)ncnc43)[C@H](O)[C@@H]2O)CC1` [Compound C46], the inhibition at 10 µM in test [1] is 2%; in test [2], 7%; in test [3] it was -5%; in test [4] it was 13%.

With `Nc1ncnc2c1ncn2[C@@H]1O[C@H](COC(=O)N2CCC(Cc3ccc(F)cc3)C2)[C@@H](O)[C@H]1O` (stereo partly shown) [Compound C66], the inhibition at 10 µM in test [1] is 18%; in test [2], -5%; in test [3], -5%; in test [4], 57%.

As to `N#CCCN1CCN(C(=O)OC[C@H]2O[C@@H](n3cnc4c(N)ncnc43)[C@H](O)[C@@H]2O)CC1` [Compound C70], the inhibition at 10 µM is -11% in test [1], 6% in test [2], 0% in test [3] and 11% in test [4].

As for `CN(C)CCNC(=O)OC[C@H]1O[C@@H](n2cnc3c(N)ncnc32)[C@H](O)[C@@H]1O` [Compound C85], the inhibition at 10 µM is -9% in test [1], 1% in test [2], -3% in test [3] and 25% in test [4].

For `Nc1ncnc2c1ncn2[C@@H]1O[C@H](COC(=O)N2CCN(C(=O)N3CCOCC3)CC2)[C@@H](O)[C@H]1O` [Compound C89], the inhibition at 10 µM in test [1] was -20%; in test [2], -7%; in test [3], -10%; in test [4], 9%.

As to `CS(=O)(=O)N1CC2(CCN(C(=O)OC[C@H]3O[C@@H](n4cnc5c(N)ncnc54)[C@H](O)[C@@H]3O)CC2)c2ccccc21` [Compound C98], the inhibition at 10 µM is -8% in test [1], 0% in test [2], -7% in test [3] and 84% in test [4].

Consider `Nc1ncnc2c1ncn2[C@@H]1O[C@H](COC(=O)N2CCS(=O)(=O)CC2)[C@@H](O)[C@H]1O` [Compound C100], for which the inhibition at 10 µM in test [1] is -8%; in test [2], -3%; in test [3], -11%; in test [4], 9%.
